# Experimental data as given in ChEMBL document CHEMBL1201862, “PubChem BioAssay data set” (2004).
#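 A five-concentration, 48-hour dose response in 96-well plates underlies each endpoint, interpolated linearly between surrounding concentrations. At the GI50, growth is halved.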 Calls of active or inactive are those of the source. Rule as the data show it: active = GI50 up to about 1.1 µM and inactive = higher.
# Columns and labels:
# Assay in all cases: NCI anticancer screen, dose series, 48 h
# SNB-75 = test system: SNB-75
# HCT-15 = test system: HCT-15
# K562 = test system: K562
# ACHN = test system: ACHN
# OVCAR-4 = test system: OVCAR-4
# SW-620 = test system: SW-620
# UO-31 = test system: UO-31
# M14 = test system: M14
# MDA-N = test system: MDA-N
# SK-MEL-2 = test system: SK-MEL-2
# TK-10 = test system: TK-10
# MOLT-4 = test system: MOLT-4
# SF-268 = test system: SF-268
# PC-3 = test system: PC-3
# NCI-H23 = test system: NCI-H23
# SN12C = test system: SN12C
# CAKI-1 = test system: CAKI-1
# LOX IMVI = test system: LOX IMVI
# SF-295 = test system: SF-295
SMILES,GI50 (SNB-75),GI50 (HCT-15),GI50 (K562),GI50 (ACHN),GI50 (OVCAR-4),GI50 (SW-620),GI50 (UO-31),GI50 (M14),GI50 (MDA-N),GI50 (SK-MEL-2),GI50 (TK-10),GI50 (MOLT-4),GI50 (SF-268),GI50 (PC-3),GI50 (NCI-H23),GI50 (SN12C),GI50 (CAKI-1),GI50 (LOX IMVI),GI50 (SF-295)
O=[As](O)(O)c1ccc(Cc2ccc([As](=O)(O)O)cc2)cc1,1.34 µM (inactive),1.17 µM,0.265 µM (active),1.03 µM (active),1.9 µM (inactive),0.27 µM (active),1.24 µM (inactive),1.06 µM (active),0.421 µM (active),1.35 µM (inactive),0.547 µM (active),0.457 µM (active),0.434 µM (active),0.546 µM (active),0.773 µM (active),0.64 µM (active),0.955 µM (active),0.336 µM (active),2.78 µM (inactive)
Cc1cc(S(=O)(=O)Nc2n[nH]c(-c3ccc(Cl)cn3)n2)c(S)cc1Cl,80.9 µM (inactive),70.1 µM,–,32.9 µM (inactive),53.8 µM (inactive),83.6 µM (inactive),29.5 µM (inactive),76.6 µM (inactive),63.4 µM (inactive),47.5 µM (inactive),> 100 µM (inactive),40.6 µM (inactive),54.7 µM (inactive),> 100 µM (inactive),–,> 100 µM (inactive),44 µM (inactive),> 100 µM (inactive),–
COc1cc(N(C)C)ccc1C=c1c2ccccc2n2c1cc(-c1ccccc1)[n+]2C,0.33 µM (active),0.979 µM,0.177 µM (active),0.29 µM (active),0.453 µM (active),0.276 µM (active),0.493 µM (active),0.411 µM (active),0.308 µM (active),0.469 µM (active),0.575 µM (active),0.222 µM (active),0.495 µM (active),0.233 µM (active),0.237 µM (active),0.296 µM (active),0.472 µM (active),0.308 µM (active),0.336 µM (active)
N=C(N)Nc1ccc(-c2ccc(NC(=N)N)cc2)cc1,9.12 µM (inactive),49.5 µM,35.4 µM (inactive),45.3 µM (inactive),60.7 µM (inactive),62.5 µM (inactive),46.1 µM (inactive),36.1 µM (inactive),40.7 µM (inactive),34.4 µM (inactive),14.3 µM (inactive),> 100 µM (inactive),37.3 µM (inactive),15.7 µM (inactive),35.6 µM (inactive),12.4 µM (inactive),41.1 µM (inactive),50.8 µM (inactive),17.8 µM (inactive)
c1cc(-c2cscc2-c2ccsc2)cs1,12.3 µM (inactive),29.4 µM,71.4 µM (inactive),> 100 µM (inactive),37.8 µM (inactive),57.9 µM (inactive),72.9 µM (inactive),31.3 µM (inactive),40.2 µM (inactive),4.65 µM (inactive),88.5 µM (inactive),30.1 µM (inactive),58.2 µM (inactive),27.5 µM (inactive),25.7 µM (inactive),> 100 µM (inactive),> 100 µM (inactive),37.6 µM (inactive),83.4 µM (inactive)
COC1CC(C)([N+](=O)[O-])C(O)C(C)O1 (stereo not drawn),> 100 µM (inactive),> 100 µM,> 100 µM (inactive),> 100 µM (inactive),> 100 µM (inactive),> 100 µM (inactive),> 100 µM (inactive),> 100 µM (inactive),> 100 µM (inactive),> 100 µM (inactive),> 100 µM (inactive),> 100 µM (inactive),> 100 µM (inactive),> 100 µM (inactive),> 100 µM (inactive),> 100 µM (inactive),> 100 µM (inactive),> 100 µM (inactive),> 100 µM (inactive)
O=C1OC(c2ccccc2)N/C1=C\c1ccc2c(c1)OCO2 (stereo not drawn),98.9 µM (inactive),> 100 µM,> 100 µM (inactive),> 100 µM (inactive),36.7 µM (inactive),> 88.1 µM (inactive),> 100 µM (inactive),> 74 µM (inactive),> 75.9 µM (inactive),> 77.1 µM (inactive),> 100 µM (inactive),> 63.1 µM (inactive),> 100 µM (inactive),> 100 µM (inactive),> 100 µM (inactive),> 100 µM (inactive),> 100 µM (inactive),53.3 µM (inactive),> 100 µM (inactive)
Cc1cc(C)c2c(=N)c3ccccc3n(CCCCCCO)c2n1,1.88 µM (inactive),2.88 µM,–,1.36 µM (inactive),2.45 µM (inactive),4.17 µM (inactive),1.63 µM (inactive),4.22 µM (inactive),2.52 µM (inactive),3.27 µM (inactive),3.15 µM (inactive),3.78 µM (inactive),3.62 µM (inactive),2.21 µM (inactive),2.15 µM (inactive),1.95 µM (inactive),2.48 µM (inactive),1.91 µM (inactive),3.36 µM (inactive)
CCN(CC)C(=S)N/N=C/c1ccccn1,0.624 µM (active),< 0.01 µM,< 0.01 µM (active),< 0.0172 µM (active),–,< 0.01 µM (active),0.0415 µM (active),0.0324 µM (active),0.166 µM (active),0.625 µM (active),–,< 0.01 µM (active),< 0.0177 µM (active),< 0.01 µM (active),< 0.01 µM (active),0.0212 µM (active),< 0.01 µM (active),< 0.01 µM (active),< 0.0483 µM (active)
Cc1cc2[nH]c3c(C#N)c(-c4ccccc4)c(/C=N/c4cccc(C(F)(F)F)c4)c(=O)n3c2cc1C,> 100 µM (inactive),74.1 µM,–,83.9 µM (inactive),99.5 µM (inactive),59.7 µM (inactive),> 100 µM (inactive),> 100 µM (inactive),79.3 µM (inactive),> 100 µM (inactive),> 100 µM (inactive),–,64.7 µM (inactive),> 100 µM (inactive),> 100 µM (inactive),89.9 µM (inactive),89.9 µM (inactive),97.9 µM (inactive),64.3 µM (inactive)
CC(=O)n1c2ccc(Br)cc2c2nc3ccccc3nc21,> 100 µM (inactive),> 100 µM,> 100 µM (inactive),> 100 µM (inactive),75.3 µM (inactive),> 100 µM (inactive),> 100 µM (inactive),> 100 µM (inactive),> 100 µM (inactive),> 100 µM (inactive),> 100 µM (inactive),> 100 µM (inactive),> 100 µM (inactive),> 100 µM (inactive),> 100 µM (inactive),> 100 µM (inactive),> 100 µM (inactive),> 100 µM (inactive),> 100 µM (inactive)
COC(=O)/C(C#N)=C(\Nc1ccccc1)N1CCOCC1,> 100 µM (inactive),> 100 µM,> 100 µM (inactive),> 100 µM (inactive),> 100 µM (inactive),> 100 µM (inactive),> 100 µM (inactive),> 100 µM (inactive),> 100 µM (inactive),> 100 µM (inactive),> 100 µM (inactive),> 100 µM (inactive),> 100 µM (inactive),> 100 µM (inactive),> 100 µM (inactive),> 100 µM (inactive),> 100 µM (inactive),> 100 µM (inactive),> 100 µM (inactive)
CCCC(=O)n1[nH]c(=O)n(C(C)(C)C)c1=O,39.5 µM (inactive),> 100 µM,> 100 µM (inactive),> 100 µM (inactive),> 100 µM (inactive),> 100 µM (inactive),> 100 µM (inactive),> 100 µM (inactive),> 100 µM (inactive),> 100 µM (inactive),> 100 µM (inactive),> 100 µM (inactive),> 100 µM (inactive),> 100 µM (inactive),> 100 µM (inactive),> 100 µM (inactive),> 100 µM (inactive),> 100 µM (inactive),> 100 µM (inactive)
COc1cccc(/C=N/[N+](C)(C)C)c1O,> 10 µM (inactive),> 10 µM,> 10 µM (inactive),> 10 µM (inactive),> 10 µM (inactive),> 10 µM (inactive),> 10 µM (inactive),> 10 µM (inactive),> 10 µM (inactive),> 10 µM (inactive),> 10 µM (inactive),> 10 µM (inactive),> 10 µM (inactive),> 10 µM (inactive),2.22 µM (inactive),> 10 µM (inactive),> 10 µM (inactive),> 10 µM (inactive),> 10 µM (inactive)
CCOP(=O)(C=C=C1CCC2[C@@H]3CCc4cc(OC)ccc4C3CC[C@]12C)OCC (stereo partly drawn),12.7 µM (inactive),10.9 µM,0.348 µM (active),10.3 µM (inactive),6.24 µM (inactive),12 µM (inactive),< 0.01 µM (active),11.6 µM (inactive),12.3 µM (inactive),12.9 µM (inactive),12.7 µM (inactive),–,11.9 µM (inactive),3.92 µM (inactive),5.73 µM (inactive),10.4 µM (inactive),12.9 µM (inactive),9.06 µM (inactive),5.6 µM (inactive)
CCOP(=O)(CN1CCNCCNCC1)OCC,26.6 µM (inactive),> 100 µM,> 100 µM (inactive),> 100 µM (inactive),> 100 µM (inactive),> 100 µM (inactive),> 100 µM (inactive),> 100 µM (inactive),> 100 µM (inactive),> 100 µM (inactive),> 100 µM (inactive),> 100 µM (inactive),–,> 100 µM (inactive),–,> 100 µM (inactive),> 100 µM (inactive),> 100 µM (inactive),> 100 µM (inactive)
